Reference: US11261177B2, “Benzoxazinone derivatives useful as herbicides” (REDAG CROP PROTECTION LTD, priority 2017, dated 2022)

What was measured:
Format in all cases: in vivo
Lolium perenne [1] = test: Pre-emergence herbicidal assay, 96 cell trays, glasshouse; settings: 168 h, Lollium, assessed 7 days after treatment, read-out: % control of plant growth; for pest or weed control at 200 g/ha: 0.2 kg/ha; for pest or weed control at 1000 g/ha: 1 kg/ha; for pest or weed control at 5000 g/ha: 5 kg/ha
Procedure: (§1) The compounds were screened at three concentrations (0.2, 1 and 5 kg/ha) against 2 weed species (Stellaria media—Chickweed and Lolium perenne). The seeds were sown in the cells of 96 cell trays (4-6 seeds per cell). For the pre-emergence assay, 75 μL of a suspension of the test compound, at the above doses, was added on top of the soil 1 day after sowing. For the post-emergence assay, the seedlings were sprayed with 200 μL of a suspension of the test compound two weeks after sowing. The formulation used is 25% acetone and 75% water/0.01% Tween 20. Each treatment was replicated three times. The plants were kept in a glasshouse (uncontrolled conditions) and assessed 7 days after treatment. A small number of compounds were tested in a first trial. A larger number of compounds were tested in a second trial. The assessment was based on the % control of plant growth in each cell.

[2] = system: Stellaria media—Chickweed; test: as above; settings: 168 h, assessed 7 days after treatment, read-out: % control of plant growth; for pest or weed control at 200 g/ha: 0.2 kg/ha; for pest or weed control at 1000 g/ha: 1 kg/ha; for pest or weed control at 5000 g/ha: 5 kg/ha
Procedure: as §1

Lolium perenne [3] = test: Post-emergence herbicidal assay, 96 cell trays, glasshouse; settings: 168 h, Lollium, assessed 7 days after treatment, read-out: % control of plant growth; for pest or weed control at 200 g/ha: 0.2 kg/ha; for pest or weed control at 1000 g/ha: 1 kg/ha; for pest or weed control at 5000 g/ha: 5 kg/ha
Procedure: as §1

[4] = system: Stellaria media—Chickweed; test: as above; settings: 168 h, assessed 7 days after treatment, read-out: % control of plant growth; for pest or weed control at 200 g/ha: 0.2 kg/ha; for pest or weed control at 1000 g/ha: 1 kg/ha; for pest or weed control at 5000 g/ha: 5 kg/ha
Procedure: as §1

Row | Structure (SMILES) | pest or weed control at 200 g/ha (Lolium perenne [1]; second trial (Table 2)) [%] | pest or weed control at 1000 g/ha (Lolium perenne [1]; second trial (Table 2)) [%] | pest or weed control at 5000 g/ha (Lolium perenne [1]; second trial (Table 2)) [%] | pest or weed control at 200 g/ha ([2]; second trial (Table 2)) [%] | pest or weed control at 1000 g/ha ([2]; second trial (Table 2)) [%] | pest or weed control at 5000 g/ha ([2]; second trial (Table 2)) [%] | pest or weed control at 200 g/ha (Lolium perenne [3]; second trial (Table 2)) [%] | pest or weed control at 1000 g/ha (Lolium perenne [3]; second trial (Table 2)) [%] | pest or weed control at 5000 g/ha (Lolium perenne [3]; second trial (Table 2)) [%] | pest or weed control at 200 g/ha ([4]; second trial (Table 2)) [%] | pest or weed control at 1000 g/ha ([4]; second trial (Table 2)) [%] | pest or weed control at 5000 g/ha ([4]; second trial (Table 2)) [%] | also measured
1 | C#CCN1C(=O)C2(CCC2)Oc2cc(F)c(N3C(=O)C=C(C(F)(F)F)C3=O)cc21 [Example 24] | < 20 | 20 to 80 | 20 to 80 | < 20 | 20 to 80 | 20 to 80 | < 20 | < 20 | < 20 | < 20 | < 20 | < 20 | 
2 | CC(C(=O)O)N1C(=O)C2(CC2)Oc2cc(F)c(N3C(=O)c4ccc(F)cc4C3=O)cc21 (stereo not drawn) [Example 35] | < 20 | 20 to 80 | 20 to 80 | < 20 | 20 to 80 | 20 to 80 | < 20 | 20 to 80 | 20 to 80 | 80 to 100 | 80 to 100 | 80 to 100 | 
3 | C#CCN1C(=O)C2(CC2)Oc2cc(F)c(N3C(=O)C4COCCN4C3=O)cc21 (stereo not drawn) [Example 45, 2-(7-Fluoro-3-oxo-4-(prop-2-yn-1-yl)-3,4-dihydrospiro[benzo[b][1,4]oxazine-2,1′-cyclopropan]-6-yl)tetrahydro-1H-imidazo[5,1-c][1,4]oxazine-1,3(2H)-dione] |  |  |  |  |  |  | 80 to 100 | 80 to 100 | 80 to 100 | 80 to 100 | 80 to 100 | 80 to 100 | 
4 | C#CCN1C(=O)C2(CC2)Oc2cc(F)c(N3C(=O)C4=C(CCCC4)C3=O)cc21 [Example 1, 2-(7-Fluoro-3-oxo-4-(prop-2-yn-1-yl)-3,4-dihydrospiro[benzo[b][1,4]oxazine-2,1′-cyclopropan]-6-yl)-4,5,6,7-tetrahydro-1H-isoindole-1,3(2H)-dione] | 20 to 80 | 20 to 80 | 80 to 100 | 20 to 80 | 80 to 100 | 80 to 100 | 20 to 80 | 80 to 100 | 80 to 100 | 80 to 100 | 80 to 100 | 80 to 100 | pest or weed control at 200 g/ha (Lolium perenne [1]; first trial (Table 1)): 20 to 80%; pest or weed control at 1000 g/ha (Lolium perenne [1]; first trial (Table 1)): 20 to 80%; pest or weed control at 5000 g/ha (Lolium perenne [1]; first trial (Table 1)): 20 to 80%; pest or weed control at 200 g/ha ([2]; first trial (Table 1)): < 20%; pest or weed control at 1000 g/ha ([2]; first trial (Table 1)): < 20%; pest or weed control at 5000 g/ha ([2]; first trial (Table 1)): < 20%; pest or weed control at 200 g/ha (Lolium perenne [3]; first trial (Table 1)): < 20%; pest or weed control at 1000 g/ha (Lolium perenne [3]; first trial (Table 1)): 20 to 80%; pest or weed control at 5000 g/ha (Lolium perenne [3]; first trial (Table 1)): 80 to 100%; pest or weed control at 200 g/ha ([4]; first trial (Table 1)): < 20%; pest or weed control at 1000 g/ha ([4]; first trial (Table 1)): 20 to 80%; pest or weed control at 5000 g/ha ([4]; first trial (Table 1)): 20 to 80%
5 | C#CCN1C(=O)C2(CC2)Oc2cc(F)c(-n3c(=O)cc(C(F)(F)F)n(CC#C)c3=O)cc21 [Example 41] | 80 to 100 | 80 to 100 | 80 to 100 | 80 to 100 | 80 to 100 | 80 to 100 | < 20 | 20 to 80 | 80 to 100 | 80 to 100 | 80 to 100 | 80 to 100 | 
6 | N#CCN1C(=O)C2(CC2)Oc2cc(F)c(N3C(=O)C4COCCN4C3=O)cc21 (stereo not drawn) [Example 50] |  |  |  |  |  |  | < 20 | < 20 | < 20 | 80 to 100 | 80 to 100 | 80 to 100 | 
7 | COC(=O)C(C)N1C(=O)C2(CC2)Oc2cc(F)c(N3C(=O)c4ccc(F)cc4C3=O)cc21 (stereo not drawn) [Example 16] | < 20 | 20 to 80 | 20 to 80 | 80 to 100 | 80 to 100 | 80 to 100 | 20 to 80 | 20 to 80 | 80 to 100 | 80 to 100 | 80 to 100 | 80 to 100 | 
8 | C#CCN1C(=O)C2(CN(C(=O)OCc3ccccc3)C2)Oc2cc(F)c(N3C(=O)c4ccc(F)cc4C3=O)cc21 [Example 25] | < 20 | < 20 | < 20 | 20 to 80 | 20 to 80 | 20 to 80 | < 20 | < 20 | < 20 | < 20 | < 20 | < 20 | 
9 | C#CCN1C(=O)C2(CC2)Oc2cc(F)c(N3C(=O)C(=O)N(CCC)C3=S)cc21 [Example 2, 1-(7-Fluoro-3-oxo-4-(prop-2-yn-1-yl)-3,4-dihydrospiro[benzo[b][1,4]oxazine-2,1′-cyclopropan]-6-yl)-3-propyl-2-thioxoimidazolidine-4,5-dione] | < 20 | < 20 | < 20 | 20 to 80 | 20 to 80 | 20 to 80 | < 20 | < 20 | < 20 | 20 to 80 | 20 to 80 | 20 to 80 | pest or weed control at 200 g/ha (Lolium perenne [1]; first trial (Table 1)): < 20%; pest or weed control at 1000 g/ha (Lolium perenne [1]; first trial (Table 1)): < 20%; pest or weed control at 5000 g/ha (Lolium perenne [1]; first trial (Table 1)): < 20%; pest or weed control at 200 g/ha ([2]; first trial (Table 1)): 20 to 80%; pest or weed control at 1000 g/ha ([2]; first trial (Table 1)): 20 to 80%; pest or weed control at 5000 g/ha ([2]; first trial (Table 1)): 20 to 80%; pest or weed control at 200 g/ha (Lolium perenne [3]; first trial (Table 1)): < 20%; pest or weed control at 1000 g/ha (Lolium perenne [3]; first trial (Table 1)): < 20%; pest or weed control at 5000 g/ha (Lolium perenne [3]; first trial (Table 1)): < 20%; pest or weed control at 200 g/ha ([4]; first trial (Table 1)): 20 to 80%; pest or weed control at 1000 g/ha ([4]; first trial (Table 1)): 20 to 80%; pest or weed control at 5000 g/ha ([4]; first trial (Table 1)): 20 to 80%
10 | O=C1C2COCCN2C(=O)N1c1cc2c(cc1F)OC1(CC1)C(=O)N2CC1CC1 (stereo not drawn) [Example 48] |  |  |  |  |  |  | < 20 | < 20 | 20 to 80 | 80 to 100 | 80 to 100 | 80 to 100 | 
11 | CC(C)=CCN1C(=O)C2(CC2)Oc2cc(F)c(N3C(=O)C4COCCN4C3=O)cc21 (stereo not drawn) [Example 51] |  |  |  |  |  |  | < 20 | < 20 | < 20 | 80 to 100 | 80 to 100 | 80 to 100 | 
12 | O=C1C2CC(O)CN2C(=O)N1c1cc2c(cc1F)OC1(CC1)C(=O)N2CC1CC1 (stereo not drawn) [Example 46] |  |  |  |  |  |  | < 20 | < 20 | < 20 | < 20 | < 20 | < 20 | 
13 | O=C1N(CC2CC2)c2cc(/N=c3\sc(=O)n4n3CCCC4)c(F)cc2OC12CC2 [Example 37] |  |  |  |  |  |  | 20 to 80 | 20 to 80 | 80 to 100 | 80 to 100 | 80 to 100 | 80 to 100 | 
14 | O=C1C2CCCN2C(=O)N1c1cc2c(cc1F)OC1(CC1)C(=O)N2CC1CC1 (stereo not drawn) [Example 52] |  |  |  |  |  |  | < 20 | 20 to 80 | 20 to 80 | 80 to 100 | 80 to 100 | 80 to 100 | 
15 | COC(=O)C(C)N1C(=O)C2(CC2)Oc2cc(F)c(N3C(=O)C4COCCN4C3=O)cc21 (stereo not drawn) [Example 49] |  |  |  |  |  |  | < 20 | < 20 | < 20 | 80 to 100 | 80 to 100 | 80 to 100 | 
16 | COC(=O)C(C)N1C(=O)C2(CC2)Oc2cc(F)c(/N=c3\sc(=O)n4n3CCCC4)cc21 (stereo not drawn) [Example 38] |  |  |  |  |  |  | 20 to 80 | 20 to 80 | 80 to 100 | 80 to 100 | 80 to 100 | 80 to 100 | 
